Experimental data reported in PubChem BioAssay (NCI).
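Values below derive from 48-hour exposures of cells grown in 96-well plates, with endpoints linearly interpolated between the two concentrations bracketing the appropriate inhibition level. GI50 is the concentration that inhibits growth by half. TGI is the concentration that stops growth completely.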

Tests used:
Assay in all cases: NCI anticancer screen, dose series, 48 h
UO-31 renal = tested on: UO-31 renal
SNB-19 CNS = tested on: SNB-19 CNS
OVCAR-3 ovarian = tested on: OVCAR-3 ovarian
A498 renal = tested on: A498 renal
NCI-H23 lung = tested on: NCI-H23 lung
COLO 205 colon = tested on: COLO 205 colon
HOP-62 NSCLC = tested on: HOP-62 NSCLC
SNB-75 CNS = tested on: SNB-75 CNS
SK-OV-3 ovarian = tested on: SK-OV-3 ovarian

Row | Compound | TGI (UO-31 renal) [µM] | TGI (SNB-19 CNS) [µM] | TGI (OVCAR-3 ovarian) [µM] | TGI (A498 renal) [µM] | TGI (NCI-H23 lung) [µM] | TGI (COLO 205 colon) [µM] | TGI (HOP-62 NSCLC) [µM] | TGI (SNB-75 CNS) [µM] | TGI (SK-OV-3 ovarian) [µM] | GI50 (UO-31 renal) [µM] | GI50 (SNB-19 CNS) [µM] | GI50 (OVCAR-3 ovarian) [µM] | GI50 (A498 renal) [µM] | GI50 (NCI-H23 lung) [µM] | GI50 (COLO 205 colon) [µM] | GI50 (HOP-62 NSCLC) [µM] | GI50 (SK-OV-3 ovarian) [µM] | GI50 (SNB-75 CNS) [µM]
1 | CC(C)c1ccccc1NC(=O)C(=O)Cc1nc2ccccc2s1 | > 100 | > 100 | > 100 | > 100 | > 100 | > 100 | > 100 | > 100 | > 100 | – | – | – | – | – | – | – | – | –
2 | O=C(CO)CC(=O)C(=O)Nc1nc([N+](=O)[O-])cs1 | > 100 | > 100 | > 100 | > 100 | > 100 | > 100 | > 100 | > 100 | > 100 | – | – | – | – | – | – | – | – | –
3 | Cc1cc2c(=O)n(-c3ccc(F)cc3)c(C)nc2c(C(=O)O)c1C | > 100 | – | > 100 | > 100 | > 100 | > 100 | > 100 | > 100 | > 100 | – | – | – | – | – | – | – | – | –
4 | N/N=C1\C(=O)N(C2CCCCC2)C(=O)C1C(=O)NC1CCCCC1 (centres undefined) | > 100 | > 100 | 51 | > 100 | > 100 | > 100 | > 100 | > 100 | > 100 | – | – | – | – | – | – | – | – | –
5 | COc1ccc(/C(=N/NC(=O)NN)C(c2ccc(OC)cc2)C2(O)CNc3c(Cl)cc(Cl)cc32)cc1 (centres undefined) | > 100 | > 100 | > 100 | > 100 | > 100 | > 100 | > 100 | > 100 | > 100 | – | – | – | – | – | – | – | – | –
6 | CC(=O)C1CC=C(C)CC1 (centres undefined) | > 100 | > 100 | > 100 | > 100 | > 100 | > 100 | > 100 | > 100 | > 100 | – | – | – | – | – | – | – | – | –
7 | Cc1cc(N(CCC#N)S(C)(=O)=O)ccc1C=O | > 100 | > 100 | > 100 | > 100 | > 100 | > 100 | > 100 | > 100 | > 100 | – | – | – | – | – | – | – | – | –
8 | CC1C[C@H](OC(N)=O)C(C)CC1=O (some centres undefined) | > 100 | > 100 | > 100 | > 100 | > 100 | > 100 | > 100 | > 100 | > 100 | – | – | – | – | – | – | – | – | –
9 | COC1(OC)CC2C=C(S(=O)(=O)c3ccccc3)C1N(Cc1ccccc1)C2=O (centres undefined) | > 100 | > 100 | 56.6 | 57.1 | 40.5 | 43.4 | > 100 | > 100 | > 100 | – | – | – | – | – | – | – | – | –
10 | COc1cc(/C=C/c2cc(/C=C/c3ccc(O)c(OC)c3)n(-c3c(C)cccc3C)c(=O)n2)ccc1O | 2.53 | 9.19 | 6.6 | 6.08 | 3.98 | 4.19 | 2.76 | – | 3.37 | 0.352 | 2.38 | 1.37 | 2.4 | 1.25 | 2.07 | 1.08 | 0.438 | –
11 | CCOC(=O)N1CCc2cc(OC)c(OC)c3c2C1CC3=O (centres undefined) | > 100 | > 100 | – | > 100 | – | > 100 | > 100 | > 100 | > 100 | – | – | – | – | – | – | – | – | –
12 | COC(=O)c1ccc2c(c1)nc(-c1cc3ccccc3[nH]c1=O)n2-c1cc(C(C)(C)C)[nH]n1 | > 100 | > 100 | > 100 | > 87.7 | > 100 | – | > 100 | 41.5 | > 100 | 0.526 | 7.59 | 4.5 | 3.99 | 2.64 | – | 0.996 | > 53.4 | 5.42
13 | Brc1ccc(-c2nnc(-c3nn(-c4ccccc4)c4nc5ccccc5nc34)o2)cc1 | > 100 | > 100 | > 100 | – | > 100 | > 100 | > 100 | > 100 | > 100 | – | – | – | – | – | – | – | – | –
14 | N#CC(C(=O)/C(=N\Nc1nc(=S)[nH]n1N)C(C#N)c1ccc(Cl)cc1)c1ccc(Cl)cc1 (centres undefined) | > 100 | > 100 | > 100 | > 100 | > 100 | > 100 | > 100 | > 100 | > 100 | – | – | – | – | – | – | – | – | –
15 | CCn1cc(/C=C/C(C)c2cn(CC)c(=O)[nH]c2=O)c(=O)[nH]c1=O (centres undefined) | > 100 | > 100 | > 100 | – | > 100 | > 100 | > 100 | > 100 | > 100 | – | – | – | – | – | – | – | – | –
16 | CCOC(=O)C(=O)Nc1ccc(C)cc1C | > 100 | > 100 | > 100 | – | > 100 | > 100 | > 100 | – | > 100 | – | – | – | – | – | – | – | – | –

Row | Compound | TGI (UO-31 renal) [µM] | TGI (SNB-19 CNS) [µM] | TGI (OVCAR-3 ovarian) [µM] | TGI (A498 renal) [µM] | TGI (NCI-H23 lung) [µM] | TGI (COLO 205 colon) [µM] | TGI (HOP-62 NSCLC) [µM] | TGI (SNB-75 CNS) [µM] | TGI (SK-OV-3 ovarian) [µM] | GI50 (UO-31 renal) [µM] | GI50 (SNB-19 CNS) [µM] | GI50 (OVCAR-3 ovarian) [µM] | GI50 (A498 renal) [µM] | GI50 (NCI-H23 lung) [µM] | GI50 (COLO 205 colon) [µM] | GI50 (HOP-62 NSCLC) [µM] | GI50 (SK-OV-3 ovarian) [µM] | GI50 (SNB-75 CNS) [µM]
17 | C=C/C=C(\NC(=O)C(Cl)(Cl)Cl)[Si](C)(C)C | > 100 | > 100 | > 100 | > 100 | > 100 | > 100 | > 100 | > 100 | > 100 | – | – | – | – | – | – | – | – | –
18 | COc1cc2c(cc1OC)-c1cc3cc(OC)c(OC)cc3n1CC2 | > 100 | 95.8 | > 100 | 50.6 | > 100 | > 100 | > 100 | 50.5 | > 100 | – | – | – | – | – | – | – | – | –
19 | O=S(O)CCCCCSSCCCCSSCCCCCS(=O)O | > 100 | > 100 | > 100 | > 100 | > 100 | > 100 | > 100 | > 100 | > 100 | – | – | – | – | – | – | – | – | –
20 | O=C(CC1(O)C(=O)Nc2ccccc21)c1ccccc1Cl (centres undefined) | > 100 | > 100 | > 100 | > 100 | > 100 | > 100 | – | > 100 | > 100 | – | – | – | – | – | – | – | – | –
21 | CC1=CC(=O)CCC2(C)C1CC[C@@H]2OC=O (some centres undefined) | > 100 | > 100 | > 100 | – | > 100 | > 100 | > 100 | > 100 | > 100 | – | – | – | – | – | – | – | – | –
22 | Cc1ccc(-c2nc(SCC(=O)O)n[nH]2)cc1 | > 100 | > 100 | > 100 | > 100 | > 100 | > 100 | > 100 | > 100 | > 100 | – | – | – | – | – | – | – | – | –
23 | CN(C)c1ccc(N=Cc2c([O-])ccc3ccccc23)cc1.[C-]#[O+].[C-]#[O+].[Ir] | 36.4 | 64.3 | 32.4 | 51.5 | 36.8 | 33.9 | > 100 | 50.4 | > 100 | 15.6 | 24.8 | 16.6 | 22.1 | 15.3 | 17.5 | 44.1 | 34.4 | 19.3
24 | CC/C=C1\N=C(c2ccc(Cl)cc2)OC1=O | > 100 | > 100 | > 100 | > 100 | > 100 | > 100 | > 100 | > 100 | > 100 | – | – | – | – | – | – | – | – | –
25 | CC(C)(C)NN=C1C(C)(C)C(=NNC(C)(C)C)C1(C)C | > 100 | > 100 | > 100 | – | > 100 | > 100 | > 100 | > 100 | > 100 | – | – | – | – | – | – | – | – | –
26 | CCOc1ccc([C@@H]2[C@@H](Oc3ccccc3)C(=O)N2c2cc(OC)c(OC)c(OC)c2)cc1 | > 100 | > 100 | > 100 | 0.0853 | > 100 | 0.506 | > 100 | > 100 | > 100 | 0.613 | 0.289 | 0.0355 | 0.0205 | 0.467 | 0.124 | 0.0586 | 0.227 | 0.037
27 | Cn1c2c(c3ccccc31)C1CCCCC1C1C(=O)NC(=O)C21 (centres undefined) | > 100 | > 100 | 58 | > 100 | > 100 | > 100 | – | 71.3 | > 100 | – | – | – | – | – | – | – | – | –
28 | C[C@]12CCC[C@H](Cl)C1(O)C[C@H](C(=O)O)CC2 (some centres undefined) | > 100 | > 100 | > 100 | > 100 | > 100 | > 100 | > 100 | > 100 | > 100 | – | – | – | – | – | – | – | – | –
29 | CCOC(=O)C(=O)Nc1c(F)cc(F)cc1Br | > 100 | > 100 | > 100 | > 100 | > 100 | > 100 | > 100 | > 100 | > 100 | – | – | – | – | – | – | – | – | –
30 | CC(=O)c1ccc(NC(=O)CSc2nnc(-c3cc(-c4ccc(C)cc4)nc4ccccc34)o2)cc1 | 4.5 | 19.3 | > 100 | 7.5 | 61.3 | > 100 | 5.7 | 3.57 | 8.22 | 1.75 | 3.87 | 3.22 | 2.3 | 3.73 | 6.54 | 2.08 | 2.64 | 1.77
31 | CN1C2(c3ccccc3)c3c(-c4ccccc4)sc(-c4ccccc4)c3C1(c1ccccc1)C1C(=O)N(c3ccccc3)C(=O)C12 (centres undefined) | > 100 | > 100 | > 100 | > 100 | > 100 | > 100 | > 100 | > 100 | > 100 | – | – | – | – | – | – | – | – | –
